From patent US20230293565A1, “USE OF WNT/BETA-CATENIN PATHWAY INHIBITORS TO BLOCK REPLICATION OF SARS-COV-2 AND OTHER PATHOGENIC VIRUSES” (THE GOVERNORS OF THE UNIVERSITY OF ALBERTA, priority 2020, published 2023)
Entries after “also recorded” stand apart in the source; their conditions may differ. Where two headings read alike, the source gives them in different places.

What was measured:
[1] = system: SARS-CoV-2 (CANADA/VIDO01/2020 strain); type: cell-based
Vero cells = type: cell-based, African green monkey; details: 1 μM (Pyrvinium 100 nM), 48 hours
HCOV-NL63 = HCOV-NL63 plaque assay in Calu3 cells; type: cell-based; details: Calu3 treated 24 h, MOI 0.5, 24 h
Experimental: (§1) FIG. 16. Effect of Wnt/β-catenin inhibitors on other human coronaviruses (HCOVs). Calu3 cells were treated with the indicated concentrations of Wnt/β-catenin inhibitors for 24 hours and then infected with HCOVs NL63 or 229E MOI of 0.5). Twenty-four hours later, media were collected and subjected to plaque assay to determine viral titers. Average titers from there independent experiments are shown.
(§2) Because Wnt/β-catenin inhibitors enhance the IFN response, we hypothesized that these drugs would be effective against other human coronaviruses and potentially other pathogenic RNA viruses such as flaviviruses and alphaviruses. To test this theory, Calu-3 and A549 cells treated with Wnt/β-catenin inhibitors or DMSO for 24 hours were infected with two different seasonal human coronavirus HCOV-NL63 and HCOV-229E for 24 hours or Zika virus or Mayaro virus for 48 and 24 hours respectively.

HCOV-229E = HCOV-229E plaque assay in Calu3 cells; type: cell-based
Experimental: as §1, §2

Zika virus (ZIKV) = experiment: Zika virus plaque assay and qRT-PCR in A549 cells; type: cell-based; details: A549, 1 μM, 24 h pre-treatment, 0.1 MOI
Experimental: FIG. 17. Wnt/β-catenin inhibitors reduce replication of other RNA viruses. A549 cells were treated with Wnt/β-catenin inhibitors (1 μM) or DMSO alone for 24 hours, after which the cells were infected with 0.1 MOI of Zika virus (ZIKV) or Mayaro virus (MAYV). Forty-eight hours later, virus-containing media were subjected to plaque assays and total RNA extracted from cells was subjected to qRT-PCR to determine relative levels of viral RNA. Average viral titers (A,C) and genomic RNA levels (B, D) from drug-treated cells from 3 independent experiments are shown. Error bars represent standard error of the mean. *, P<0.05; **, P<0.01; N.S. (not significant).
as §2

Mayaro virus (MAYV) = type: cell-based; details: A549, 1 μM, 24 h pre-treatment, 0.1 MOI
[2] = system: type III (IFNλ2) interferon; type: cell-based, human; details: A549 treated 24 h, Sendai virus 8 and 16 hours

| Compound | SARS-CoV-2 replication, drug added 6-hours post-infection (in words) [1] | SARS-CoV-2 replication, drug added 12-hours post-infection (in words) [1] | density of peroxisomes in Vero cells (Vero cells) | titers of HCOV-NL63 (HCOV-NL63) | titers of HCOV-229E (HCOV-229E; Calu3 treated 24 h, MOI 0.5, 24 h) | replication of Zika virus (Zika virus (ZIKV)) | replication of Mayaro virus (Mayaro virus (MAYV)) | induction of type III IFN (IFNλ2 transcripts) [2] | titers of HCOV-229E (HCOV-229E) |
| --- | --- | --- | --- | --- | --- | --- | --- | --- | --- |
| O=C([O-])CCN1C(=O)/C(=C/c2ccc(-c3ccc([N+](=O)[O-])cc3)o2)SC1=S.[K+] [KYA1797K] | effectively block; also recorded: reduce SARS-CoV-2 replication | reduce SARS-CoV-2 replication | increases peroxisome density | significantly reduced | significantly reduced | most potent | most potent | – | – |
| iCRT-14 | – | – | – | – | – | – | – | much more dramatic effects | – |
| Cc1cc(/C=C/c2ccc3cc(N(C)C)ccc3[n+]2C)c(C)n1-c1ccccc1 [Pyrvinium] | effectively block; also recorded: reduce SARS-CoV-2 replication | reduce SARS-CoV-2 replication | – | significantly reduced | – | – | – | much more dramatic effects | significantly reduced |
| Cc1cc(-c2ncc(CC(=O)Nc3ccc(-c4cnccn4)cn3)cc2C)ccn1 [LGK-974] | effectively block | – | – | – | – | – | – | – | – |
